Reference: article PMC8306964 (2021)
Peptide text beside a SMILES is read from it. * marks the point of attachment. OBn = c1ccc(CO*)cc1

Key:
[1] = system: p(dAdT) (DNA, polymer) AT; experiment: fluorescence titration, Scatchard (McGhee-von Hippel) fit; details: Na+ (sodium cacodylate, 50 mM); pH 7.0, 25 °C, <1% DMSO; n fixed 0.3; polynucleotide as phosphates; error half log unit; per base
[2] = system: dA10-dT10 (DNA, duplex) AAAAAAAAAA/TTTTTTTTTT; experiment: photoalkylation (300 nm irradiation), HPLC; details: NH4+ (ammonium acetate, 100 mM); covalent; pH 7.0; 15 or 60 min; new broad signal at about 16.5 min
[3] = system: p(dGdC) (DNA, polymer) GC; experiment: fluorescence titration, Scatchard (McGhee-von Hippel) fit; details: Na+ (sodium cacodylate, 50 mM); pH 7.0, 25 °C, <1% DMSO; n fixed 0.3; polynucleotide as phosphates; error half log unit; per base
[4] = system: dG12-dC12 (DNA, duplex) GGGGGGGGGGGG/CCCCCCCCCCCC; experiment: HPLC retention shift; details: NH4+ (ammonium acetate, 100 mM); pH 7.0; retention retarded by about 0.3 min with compound; no alkylation on irradiation
[5] = system: dA10-dT10 (DNA, duplex) AAAAAAAAAA/TTTTTTTTTT; experiment: HPLC retention shift; details: NH4+ (ammonium acetate, 100 mM); pH 7.0; signal about 0.5 min earlier with compound
pApU (RNA, polymer) A/U = experiment: fluorescence titration, Scatchard (McGhee-von Hippel) fit; details: Na+ (sodium cacodylate, 50 mM); pH 7.0, 25 °C, <1% DMSO; n fixed 0.3; polynucleotide as phosphates; error half log unit; per base

SMILES | log Ka [1] | binding [2] | log Ka [3] | binding [4] | binding [5] | log Ka (pApU (RNA, polymer) A/U)
CN(C)Cc1cc(C[C@H](NC(=O)[C@H](Cc2c[nH]c3ccccc23)NC(=O)[C@@H](N)Cc2c[nH]c3ccccc23)C(=O)OCc2ccccc2)ccc1O | 5.9 log (M^-1) | yes | 6.4 log (M^-1) | yes | yes | 6.0 log (M^-1)
N[C@@H](Cc1c[nH]c2ccccc12)C(=O)N[C@@H](Cc1c[nH]c2ccccc12)C(=O)N[C@@H](Cc1ccc(O)cc1)C(=O)OCc1ccccc1 (H-Trp-Trp-Tyr-OBn) | – | – | 6.5 log (M^-1) | – | – | –
